Nine compounds from patent US20230174507A1, “IMIDAZOLE 3-OXIDE DERIVATIVE BASED ACSS2 INHIBITORS AND METHODS OF USE THEREOF” (METABOMED LTD., priority 2020, published 2023) can be followed below.

The target in one test is T1, human ACSS2 protein (Homo sapiens, UniProt Q9NR19).
T1 construct: purchased OriGene Technologies, Inc
Briefly: ACSS2 cell-free activity assay (pyrophosphatase-coupled, Biomol green). To be noted: 10 nM human ACSS2, 90 minutes at 37 C, absorbance at 620 nm; read-out: ACSS2 Biochemical IC50. The method, then: ACSS2 Cell-Free Activity Assay (Cell-Free IC50)
The assay is based on a coupling reaction with Pyrophosphatase: ACSS2 is converting ATP+CoA+Acetate=>AMP+pyrophosphate+Acetyl-CoA (Ac-CoA). Pyrophosphatase converts pyrophosphate, a product of the ACSS2 reaction, to phosphate which can be detected by measuring the absorbance at 620 nm after incubation with the Biomol green reagent (Enzo life Science, BML-AK111).
(§1) Cell Free IC50 Determination:
10 nM of human ACSS2 protein (OriGene Technologies, Inc) was incubated for 90 minutes at 37 C with various compounds' concentrations in a reaction containing 50 mM Hepes pH 7.5, 10 mM DTT, 90 mM KCl, 0.006% Tween-20, 0.1 mg/ml BSA, 2 mM MgCl2, 10 μM CoA, 5 mM NaAc, 300 μM ATP and 0.5 U/ml Pyrophosphatase (Sigma). At the end of the reaction, Biomol Green was added for 30 minutes at RT and the activity was measured by reading the absorbance at 620 nm. IC50 values were calculated using non-linear regression curve fit with 0% and 100% constrains (CDD Vault, Collaborative Drug Discovery, Inc.).

In the next test the target is T2, human ACSS1 protein (Homo sapiens, UniProt Q9NUB1).
T2 construct: purchased MyBioSource
T2 sequence (Q9NUB1 38-689): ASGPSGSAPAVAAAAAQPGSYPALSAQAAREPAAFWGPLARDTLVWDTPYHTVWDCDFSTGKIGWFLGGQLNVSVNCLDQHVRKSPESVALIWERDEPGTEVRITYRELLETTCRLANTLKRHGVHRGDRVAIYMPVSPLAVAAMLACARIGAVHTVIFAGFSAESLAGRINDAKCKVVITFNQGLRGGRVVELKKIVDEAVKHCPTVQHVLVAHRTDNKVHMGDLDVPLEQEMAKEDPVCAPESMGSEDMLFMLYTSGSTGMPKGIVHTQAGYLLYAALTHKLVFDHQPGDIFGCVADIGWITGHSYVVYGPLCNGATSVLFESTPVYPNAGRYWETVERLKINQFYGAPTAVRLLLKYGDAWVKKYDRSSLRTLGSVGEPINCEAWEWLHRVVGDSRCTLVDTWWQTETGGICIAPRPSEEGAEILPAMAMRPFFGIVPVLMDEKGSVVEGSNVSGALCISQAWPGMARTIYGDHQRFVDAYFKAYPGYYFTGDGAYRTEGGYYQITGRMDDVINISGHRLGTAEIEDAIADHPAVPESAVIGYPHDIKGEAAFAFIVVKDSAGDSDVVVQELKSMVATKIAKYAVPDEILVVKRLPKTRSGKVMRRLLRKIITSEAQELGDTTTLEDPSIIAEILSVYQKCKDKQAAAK
Briefly: ACSS1 cell-free activity assay (pyrophosphatase-coupled, Biomol green). The test is classed as biochemical. To be noted: 5 nM human ACSS1, 30 minutes at room temperature, absorbance at 620 nm. The method, then: ACSS1 Cell-Free Activity Assay (Cell-Free IC50)
The assay is based on a coupling reaction with Pyrophosphatase: ACSS1 is converting ATP+CoA+Acetate=>AMP+pyrophosphate+Acetyl-CoA (Ac-CoA). Pyrophosphatase converts pyrophosphate, a product of the ACSS1 reaction, to phosphate which can be detected by measuring the absorbance at 620 nm after incubation with the Biomol green reagent (Enzo life Science, BML-AK111).
as §1
5 nM of human ACSS1 protein (MyBioSource) was incubated for 30 minutes at room temperature with various compounds' concentrations in a reaction containing 50 mM Hepes pH 7.5, 10 mM DTT, 90 mM KCl, 0.006% Tween-20, 0.1 mg/ml BSA, 2 mM MgCl2, 15 μM CoA, 5 mM NaAc, 300 μM ATP and 0.5 U/ml Pyrophosphatase (Sigma). At the end of the reaction, Biomol Green was added for 30 minutes at RT and the activity was measured by reading the absorbance at 620 nm. IC50 values were calculated using non-linear regression curve fit with 0% and 100% constrains (CDD Vault, Collaborative Drug Discovery, Inc.).

T1 sequence (Q9NR19 whole entry): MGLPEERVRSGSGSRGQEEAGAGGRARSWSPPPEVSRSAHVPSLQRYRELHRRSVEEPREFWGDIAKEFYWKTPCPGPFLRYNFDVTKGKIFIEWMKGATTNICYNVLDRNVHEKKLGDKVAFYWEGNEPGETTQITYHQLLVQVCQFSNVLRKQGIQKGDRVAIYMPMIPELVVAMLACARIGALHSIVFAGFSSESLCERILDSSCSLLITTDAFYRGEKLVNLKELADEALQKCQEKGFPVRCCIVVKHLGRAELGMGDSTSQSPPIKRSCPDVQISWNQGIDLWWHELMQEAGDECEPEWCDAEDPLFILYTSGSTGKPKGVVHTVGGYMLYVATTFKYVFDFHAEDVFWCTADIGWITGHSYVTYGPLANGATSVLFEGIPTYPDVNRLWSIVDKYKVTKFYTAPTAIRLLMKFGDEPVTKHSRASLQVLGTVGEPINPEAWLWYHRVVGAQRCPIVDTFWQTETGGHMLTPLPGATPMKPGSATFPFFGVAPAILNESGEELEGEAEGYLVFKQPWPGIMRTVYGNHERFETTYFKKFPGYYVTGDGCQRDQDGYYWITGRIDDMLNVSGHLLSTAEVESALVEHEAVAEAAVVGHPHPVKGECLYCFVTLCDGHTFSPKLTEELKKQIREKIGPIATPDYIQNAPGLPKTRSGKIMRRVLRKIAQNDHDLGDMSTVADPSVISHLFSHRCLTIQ

Take `COc1ccc(-c2[nH]c(C)c(C(=O)Nc3cccc(-c4ccc[nH]4)c3)[n+]2[O-])cc1-c1c(C)cccc1C` [Compound 191, 4-((3-(1H-pyrrol-2-yl)phenyl)carbamoyl)-2-(6-methoxy-2′,6′-dimethyl-[1,1′-biphenyl]-3-yl)-5-methyl-1H-imidazole 3-oxide]: the half-inhibitory concentration (IC50) (in general, the concentration needed to halve the response being measured) at human ACSS2 protein was over 30 nM. The “ACSS1 Biochemical IC50 (nM)” value at human ACSS1 protein was “Inactive”.
As to `CCC(F)(F)c1cccc(NC(=O)c2c(C)n(COP(=O)(O)O)c(-c3ccc(OC)c(-c4c(C)cccc4C)c3)[n+]2[O-])c1` [Compound 193, 4-((3-(1,1-difluoropropyl)phenyl)carbamoyl)-2-(6-methoxy-2′,6′-dimethyl-[1,1′-biphenyl]-3-yl)-5-methyl-1-((phosphonooxy)methyl)-1H-imidazole 3-oxide], the half-maximal inhibitory concentration (IC50) at human ACSS2 protein is over 30 nM. In addition, the “ACSS1 Biochemical IC50 (nM)” value at human ACSS1 protein is “Inactive”.
For `COc1ccc(-c2[nH]c(C)c(C(=O)Nc3cccc(CC(F)(F)F)c3)[n+]2[O-])cc1-c1c(C)cccc1C` [Compound 194, 2-(6-methoxy-2′,6′-dimethyl-[1,1′-biphenyl]-3-yl)-5-methyl-4-((3-(2,2,2-trifluoroethyl)phenyl)carbamoyl)-1H-imidazole 3-oxide] the same measures were 1 to 30 nM and “Inactive”.
Turning to `COc1ccc(-c2[nH]c(C)c(C(=O)Nc3cccc(C(O)(O)C(F)(F)F)c3)[n+]2[O-])cc1-c1c(C)cccc1C` [Compound 195, 2-(6-methoxy-2′,6′-dimethyl-[1,1′-biphenyl]-3-yl)-5-methyl-4-((3-(2,2,2-trifluoro-1,1-dihydroxyethyl)phenyl)carbamoyl)-1H-imidazole 3-oxide], at human ACSS2 protein, the IC50 is over 30 nM. Moreover, the “ACSS1 Biochemical IC50 (nM)” value on human ACSS1 protein is given as “Inactive”.
With `CCC(F)(F)c1cccc(NC(=O)c2c(C)n(COC(C)=O)c(-c3ccc(OC)c(-c4c(C)cccc4C)c3)[n+]2[O-])c1` [Compound 200, 1-(acetoxymethyl)-4-((3-(1,1-difluoropropyl)phenyl)carbamoyl)-2-(6-methoxy-2′,6′-dimethyl-[1,1′-biphenyl]-3-yl)-5-methyl-1H-imidazole 3-oxide], the IC50 on human ACSS2 protein was over 30 nM. The “ACSS1 Biochemical IC50 (nM)” value on human ACSS1 protein is listed as “Inactive”.
On to `CCC(F)(F)c1cccc(NC(=O)c2c(C)n(COP(=O)(OC)OC)c(-c3ccc(OC)c(-c4c(C)cccc4C)c3)[n+]2[O-])c1` [Compound 205, 4-((3-(1,1-difluoropropyl)phenyl)carbamoyl)-1-(((dimethoxyphosphoryl)oxy)methyl)-2-(6-methoxy-2′,6′-dimethyl-[1,1′-biphenyl]-3-yl)-5-methyl-1H-imidazole 3-oxide], for which the IC50 on human ACSS2 protein is over 30 nM. The “ACSS1 Biochemical IC50 (nM)” value at human ACSS1 protein is “Inactive”.
For `COc1ccc(-c2[nH]c(C)c(C(=O)Nc3cccc(C4(C(F)(F)F)CC4)c3)[n+]2[O-])cc1-c1c(C)cccc1C` [Compound 206, 2-(6-methoxy-2′,6′-dimethyl-[1,1′-biphenyl]-3-yl)-5-methyl-4-((3-(1-(trifluoromethyl)cyclopropyl)phenyl)carbamoyl)-1H-imidazole 3-oxide] the same measures were over 30 nM and “Inactive”.
For the compound `COc1cc(F)c(-c2[nH]c(C)c(C(=O)Nc3cccc(C(F)(F)F)c3)[n+]2[O-])nc1-c1c(F)cccc1F` [Compound 208, 2-(6-(2,6-difluorophenyl)-3-fluoro-5-methoxypyridin-2-yl)-5-methyl-4-((3-(trifluoromethyl)phenyl)carbamoyl)-1H-imidazole 3-oxide], the half-maximal inhibitory concentration (IC50) on human ACSS2 protein fell in the range of 1 to 30 nM. Besides, the “ACSS1 Biochemical IC50 (nM)” value on human ACSS1 protein was “Inactive”.
For `COc1cc(F)c(-c2[nH]c(C)c(C(=O)Nc3cccc(C(F)(F)F)c3)[n+]2[O-])nc1-c1c(C)cc(F)cc1C` [Compound 209, 2-(3-fluoro-6-(4-fluoro-2,6-dimethylphenyl)-5-methoxypyridin-2-yl)-5-methyl-4-((3-(trifluoromethyl)phenyl)carbamoyl)-1H-imidazole 3-oxide] the same measures were 1 to 30 nM and “Inactive”.
